Measurements from patent US20260183396A1, “CXCR3 OVEREXPRESSION IN CAR-NK CELLS PRIMES MIGRATION/HOMING INTO THE TUMOR MICROENVIRONMENT” (DANA-FARBER CANCER INSTITUTE, INC., priority 2022, published 2026).

Legend:
STING = STING immunoblotting in NK cells and TILs; format: cell-based, human; conditions: NK cells
Experimental: Immunoblotting. […] Imaging of blots and was performed using the LI-COR Odyssey system.

NK cells [1] = assay: Immune cell toxicity assays, NK cells; format: cell-based; conditions: 72 hours of high dose exposure; regardless of IL-2 or co-culture with TILs
Experimental: Immune Cell Toxicity Assays. […] Following treatment, samples were stained with anti-CD45, anti-CD3, anti-CD4, anti-CD8, and anti-CD56 antibodies (Table 1), as well as Zombie Green live/dead (Biolegend 423111) and analyzed by flow cytometry as described above. Data were analyzed using FlowJo software version 10.5.3. As an orthogonal measure of viability, CellTiter-Glo was performed on primary T-cells and NK cells.
CellTiter-Glo luminescent cell viability assay. Cell viability was assessed using the CellTiter-Glo Luminescent Cell Viability assay (Promega, G7571) according to manufacturer's instructions. […] All conditions were tested in triplicate and plates were read on a Tecan Infinite Mplex Microplate Reader.

MPM tumor cell lines = assay: 3D vascular model of NK cell migration; format: cell-based, human
Experimental: 3D vascular model. To generate the tumor-vascular model, H226 spheroids were mixed with collagen rat tail hydrogel (2.5 mg/ml) and injected into the center gel region of the 3D microfluidic chamber (10-15 μL per each microfluidic chamber). After incubation for 30 minutes at 37° C. in sterile humidity chambers, the side wall of one flanked channel (media channel) was coated with a 150 μg/ml collagen solution in PBS to allow for better adhesion of eCs to the channel. After 15 mins, the channel was washed once with media. To create the 3D vessel, 25 μL cell suspension of 3×10^6 cells/ml human umbilical vein endothelial cells (HUVECs; C2519AS, Lonza) were injected in the media channel coated with collagen. The channel was rotated twice to create a confluent hollow-lumen 3D vessel. To allow the cells to attach to the media-gel interface and form a monolayer, the chip was incubated with cells face down for 15 mins. Next, 50 μL cell suspension was reinjected, and the chip was flipped to cover the upper part of the 3D vascular channel. After 90 mins of incubation in the humidity chamber at 37° C., cell culture media was gently added to both channels and further incubated to form a confluent monolayer. After vessel formation, NK cells (labelled with cell tracker) were added to the 3D vessel at 2:1 E:T ratio. […] NK cell migration+/−vessel was quantified at 24 hours. Image capture and analysis was performed using a fluorescence confocal microscope and processing software. The 3D vascular channels were rinsed in PBS and fixed with 4% PFA for 15 min at room temperature. Cell membranes were permeabilized with 0.1% Triton X-100 for 5 min at room temperature and washed twice with PBS. HUVEC cells were stained for F-actin with green phalloidin (Thermo Fisher Scientific A12379) and Hoechst 33342. Images were captured on a Nikon Eclipse 80i fluorescence microscope equipped with Z-stack (Prior) and CoolSNAP CCD camera (Roper Scientific).

NK cells [2] = conditions: systemic administration, murine models; related manuscript; cited from earlier work
CXCR3 = molecular target: T1, CXCR3 (Homo sapiens, UniProt P49682); assay: CXCR3 surface expression after hCXCL10, flow cytometry; format: cell-based; conditions: NK cells, NK92, Jurkat; 200 ng hCXCL10
T1 construct: endogenous in cells; host or cells: primary NK cells (cNK, CIML); NK92 and JURKAT CXCR3+ lines; also CAR and CAR-CXCR3 transduced NK cells
T1 sequence (P49682 1-368): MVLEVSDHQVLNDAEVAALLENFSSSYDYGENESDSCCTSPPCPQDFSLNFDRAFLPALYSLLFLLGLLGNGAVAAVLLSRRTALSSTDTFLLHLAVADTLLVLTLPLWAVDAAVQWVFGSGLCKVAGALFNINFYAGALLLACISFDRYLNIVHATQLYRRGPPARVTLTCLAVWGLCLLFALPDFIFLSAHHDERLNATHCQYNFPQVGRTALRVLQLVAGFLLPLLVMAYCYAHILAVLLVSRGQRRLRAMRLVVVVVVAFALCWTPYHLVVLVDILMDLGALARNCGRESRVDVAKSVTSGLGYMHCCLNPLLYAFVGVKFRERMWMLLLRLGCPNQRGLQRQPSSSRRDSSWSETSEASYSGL
Experimental: CXCR3 is degraded from the cell surface of primary NK cells and the NK cell lines NK92 and […] both expressing CXCR3, after stimulation with 200 ng of recombinant human C—X—C Motif Chemokine Ligand 10 (hCXCL10) at different time points, as illustrated in FIG. 17A-FIG. 18B, measured by flow cytometry and expressed as median fluorescent intensity (MFI) of the CXCR3 receptor. CXCR3 is also degraded from CAR and CAR-CXCR expressing cNK cells. FIG. 18C-FIG. 18D illustrate CXCR3 surface expression as measured by flow cytometry of primary NK cells (cNK) expressing CAR, CAR-CXCR3 or control, stimulated with 200 ng of recombinant human CXCL10 stimulation at different time points (0 and 60 minutes). CXCR3 is degraded from cNK NT, CAR-cNK, and CAR-NK CXCR+ cell surfaces after 1 hour of hCXCL10 treatment (FIG. 19C). CXCR3 is also degraded from cytokine-induced memory-like (CIML) NK NT, CIML CAR-NK, CIML CAR-NK CXCR+ after 1 hour of hCXCL10 treatment (FIG. 19D).

CCN(CC)CCCC(C)Nc1ccnc2cc(Cl)ccc12 (stereo not drawn) [chloroquine]
effect on ADU-S100 induced STING degradation (STING): prevented

Nc1ncnc2c1ncn2[C@@H]1O[C@@H]2CO[P@@](=O)(S)O[C@@H]3[C@H](O)[C@@H](CO[P@@](=O)(S)O[C@H]2[C@H]1F)O[C@H]3n1cc(F)c2c(=O)nc[nH]c21 [TAK-676]
cytotoxicity in human NK cells (NK cells [1]): no significant cytotoxicity | overcoming a human vascular barrier (MPM tumor cell lines; ex vivo model): especially potent | NK cell migration (MPM tumor cell lines; presence and absence of the vascular barrier): enhanced NK cell migration | trafficking and activation of NK cells (NK cells [2]): enhanced

hCXCL10: recombinant human C—X—C Motif Chemokine Ligand 10
CXCR3 cell surface expression (CXCR3): lost from the cell surface
